US20250144067A1, “PERSONALIZED STARVATION THERAPY FOR CANCER” (Faeth Therapeutics, Inc., priority 2021, published 2025)
Counter-ions that a name gives are not always drawn. Like-named read-outs stand apart in the source and are kept apart here.

Key:
[1] = tested on: NCI-H292 lung cancer cells; assay: FDA drug screening, complete media vs cholesterol-free media with simvastatin (TABLE 2); type: cell-based, human
[2] = tested on: NCI-H292 lung cancer cells; assay: FDA drug screening, complete media vs cholesterol-free media without statin (TABLE 1); type: cell-based, human
[3] = NCI-H292 cells, cholesterol-free media with simvastatin 0.04 μM, FDA drug library screen (TABLE 2)
[4] = NCI-H292 cells, complete media, FDA drug library screen (TABLE 2)
[5] = complete media minus cholesterol-free media + simvastatin (0.04 μM), >0 enhanced anti-cancer activity, about 0 neutral, <0 antagonist
[6] = NCI-H292 cells, cholesterol-free media without statin, FDA drug library screen
[7] = complete vs cholesterol-free media, >0 enhanced anti-cancer activity, about 0 neutral, <0 antagonist
[8] = NCI-H292 cells, complete media, FDA drug library screen
[9] = NCI-H292 cells, FDA drug library screen, cholesterol-free media with simvastatin 0.04 μM
[10] = complete media minus cholesterol-free media + simvastatin, >0 enhanced anti-cancer activity, about 0 neutral, <0 antagonist
[11] = Complete minus Cholesterol-free, greater than 0 enhanced anti-cancer activity, about 0 neutral, below 0 antagonist
[12] = NCI-H292 cells, FDA drug library screen, cholesterol-free media without statin
[13] = NCI-H292 cells, FDA drug library screen, complete media
[14] = Complete minus Cholesterol-free, greater than 0 enhanced anti-cancer activity, about 0 neutral, below 0 antagonists
[15] = NCI-H292 cells in cholesterol-free media without statin
[16] = NCI-H292 cells in complete media
[17] = NCI-H292 cells, cholesterol-free media without statin
[18] = complete vs cholesterol-free media, greater than 0 enhanced anti-cancer activity, about 0 neutral, below 0 antagonists
[19] = NCI-H292 cells, cholesterol-free media with simvastatin 0.04 μM, cell growth value in FDA drug screen
[20] = complete media vs cholesterol-free media + simvastatin (0.04 μM), […]
[21] = complete vs cholesterol-free media, […]
[22] = NCI-H292 cells, FDA library drug in cholesterol-free media with simvastatin 0.04 μM
[23] = NCI-H292 cells, FDA library drug in complete media
[24] = complete media vs cholesterol-free media + simvastatin (0.04 μM), >0 enhanced anti-cancer activity, about 0 neutral, <0 antagonist
[25] = Complete minus Cholesterol-free, >0 enhanced anti-cancer activity, about 0 neutral, <0 antagonist
[26] = NCI-H292 cells, drug in cholesterol-free media with simvastatin 0.04 μM
[27] = NCI-H292 cells, drug in complete media

Compound: O=C(O)Cc1ccccc1Nc1c(Cl)cccc1Cl [Diclofenac (diethylamine)]
- Cholesterol-free media + simvastatin (0.04 μM) [1, 3]: 0.9893
- Complete Media [1, 4]: 0.9206
- Difference [1, 5]: −0.07
- Cholesterol-free [2, 6]: 0.7838
- Difference [2, 7]: 0.36

Compound: CC(=O)OCC(=O)[C@@]1(O)CC[C@H]2[C@@H]3CCC4=CC(=O)C=C[C@]4(C)[C@@]3(Cl)[C@@H](Cl)C[C@@]21C [Dichlorisone acetate]
- Cholesterol-free media + simvastatin (0.04 μM) [1, 3]: 0.7442
- Complete Media [1, 4]: 0.6906
- Difference [1, 5]: −0.05
- Cholesterol-free [2, 6]: 0.8532
- Complete [2, 8]: 1.096
- Difference [2, 7]: 0.24

Compound: CC(=O)OCC(=O)[C@@]1(OC(C)=O)[C@@H](C)C[C@H]2[C@@H]3C[C@H](F)C4=CC(=O)C=C[C@]4(C)[C@@]3(F)[C@@H](O)C[C@@]21C [Diflorasone]
- Cholesterol-free media + simvastatin (0.04 μM) [1, 9]: 0.8775
- Difference [1, 10]: 0.30
- Difference [2, 11]: −0.10
- Cholesterol-free [2, 12]: 0.7536
- Complete [2, 13]: 0.6518

Compound: CC(C)(Oc1ccc(CCNC(=O)c2ccc(Cl)cc2)cc1)C(=O)O [Bezafibrate]
- Cholesterol-free media + simvastatin (0.04 μM) [1, 3]: 1.03
- Complete Media [1, 4]: 1.024
- Difference [1, 5]: −0.01
- Difference [2, 14]: −0.60
- Cholesterol-free [2, 15]: 1.652
- Complete [2, 16]: 1.053

Compound: CN(C)CC/C=C1/c2ccccc2Sc2ccc(Cl)cc21 [Chlorprothixene (hydrochloride)]
- Cholesterol-free media + simvastatin (0.04 μM) [1, 9]: 0.8374
- Complete Media [1, 13]: 1.056
- Difference [1, 10]: 0.22
- Cholesterol-free [2, 17]: 1.492
- Complete ([2]; NCI-H292 cells, complete media): 1.027
- Difference [2, 18]: −0.46

Compound: Delavirdine (mesylate)
- Cholesterol-free media + simvastatin (0.04 μM) [1, 19]: 0.9532
- Difference [1, 10]: 0.08
- Difference [2, 11]: −0.10
- Cholesterol-free [2, 12]: 1.071
- Complete [2, 13]: 0.9729

Compound: Cinepazide (Maleate)
- Cholesterol-free media + simvastatin (0.04 μM) [1, 9]: 1.132
- Complete Media [1, 13]: 1.001
- Difference [1, 20]: −0.13
- Cholesterol-free [2, 6]: 0.7192
- Complete [2, 8]: 1.265
- Difference [2, 21]: 0.55

Compound: Solifenacin (Succinate)
- Cholesterol-free media + simvastatin (0.04 μM) [1]: 0.8847
- Complete Media [1]: 0.7655
- Difference [1]: −0.12
- Cholesterol-free [2]: 1.612
- Complete [2]: 1.244
- Difference [2]: −0.37

Compound: Cc1ccc(=O)n(-c2ccccc2)c1 [Pirfenidone]
- Cholesterol-free media + simvastatin (0.04 μM) [1, 22]: 1.397
- Complete Media [1, 23]: 1.068
- Difference [1, 24]: −0.33
- Cholesterol-free [2, 17]: 1.328
- Complete ([2]; NCI-H292 cells, complete media): 0.9771
- Difference [2, 18]: −0.35

Compound: C=C(c1ccc(C(=O)O)cc1)c1cc2c(cc1C)C(C)(C)CCC2(C)C [Bexarotene]
- Cholesterol-free media + simvastatin (0.04 μM) [1, 9]: 1.087
- Complete Media [1, 13]: 0.9865
- Difference [1, 24]: −0.10
- Difference [2, 25]: −0.22
- Cholesterol-free [2, 17]: 1.341
- Complete ([2]; NCI-H292 cells, complete media): 1.124

Compound: Cc1cc(O)cc(C)c1Cl [Chloroxylenol]
- Cholesterol-free media + simvastatin (0.04 μM) [1, 3]: 0.9866
- Complete Media [1, 4]: 0.951
- Difference [1, 5]: −0.04
- Difference [2, 25]: −0.19
- Cholesterol-free [2, 17]: 1.219
- Complete ([2]; NCI-H292 cells, complete media): 1.028

Compound: CO/N=C1\C[C@]2(C[C@@H]3C[C@@H](C/C=C(\C)C[C@@H](C)/C=C/C=C4\CO[C@@H]5[C@H](O)C(C)=C[C@@H](C(=O)O3)[C@]45O)O2)O[C@H](/C(C)=C/C(C)C)[C@H]1C [Moxidectin]
- Cholesterol-free media + simvastatin (0.04 μM) [1, 26]: 0.8625
- Complete Media [1, 27]: 0.6882
- Difference [1, 24]: −0.17
- Difference [2, 25]: −0.21
- Cholesterol-free [2, 17]: 0.4893
- Complete ([2]; NCI-H292 cells, complete media): 0.2816

Compound: Rilmenidine (phosphate)
- Cholesterol-free media + simvastatin (0.04 μM) [1, 3]: 1.249
- Complete Media [1, 4]: 1.215
- Difference ([1]; complete media minus cholesterol-free media + simvastatin (0.04 μM), […]): −0.03
- Difference ([2]; Complete minus Cholesterol-free, […]): 0.01
- Cholesterol-free [2, 6]: 0.9893
- Complete [2, 8]: 0.995

Compound: CC(=O)O[C@H]1C[C@@H]2CC[C@@H]3[C@H](CC[C@@]4(C)[C@H]3C[C@H]([N+]3(C)CCCCC3)[C@@H]4OC(C)=O)[C@@]2(C)C[C@@H]1[N+]1(C)CCCCC1.[Br-].[Br-] [Pancuronium (dibromide)]
- Cholesterol-free media + simvastatin (0.04 μM) [1, 26]: 1.121
- Complete Media [1, 27]: 0.885
- Difference [1, 20]: −0.24
- Cholesterol-free [2, 17]: 1.193
- Complete ([2]; NCI-H292 cells, complete media): 0.8678
- Difference [2, 21]: −0.33

Compound: OC1(c2ccc(Cl)c(C(F)(F)F)c2)CCN(CCCC(c2ccc(F)cc2)c2ccc(F)cc2)CC1 [Penfluridol]
- Cholesterol-free media + simvastatin (0.04 μM) [1, 3]: 1.076
- Complete Media [1, 4]: 1.033
- Difference [1, 5]: −0.04
- Difference [2, 11]: −0.14
- Cholesterol-free [2, 12]: 0.7419
- Complete [2, 13]: 0.6047

Compound: C[C@]12CC[C@H]3[C@@H](CC[C@@]45O[C@@H]4C(O)=C(C#N)C[C@]35C)[C@@H]1CC[C@@H]2O [Trilostane]
- Cholesterol-free media + simvastatin (0.04 μM) [1, 26]: 1.758
- Complete Media [1, 27]: 1.505
- Difference [1, 24]: −0.25
- Difference [2, 25]: −0.23
- Cholesterol-free [2, 17]: 1.238
- Complete ([2]; NCI-H292 cells, complete media): 1.003

Compound: Prednisolone (hemisuccinate)
- Cholesterol-free media + simvastatin (0.04 μM) [1]: 0.7218
- Difference [1]: 0.06
- Cholesterol-free [2]: 0.8784
- Complete [2]: 0.4751
- Difference [2]: −0.40

Compound: CN(C(=O)CN(CCO)CC(=O)N(C)C(C)(C)Cc1ccccc1)C(C)(C)Cc1ccccc1 [Oxethazaine]
- Cholesterol-free media + simvastatin (0.04 μM) [1, 9]: 1.131
- Complete Media [1, 13]: 0.9874
- Difference [1, 24]: −0.14
- Difference [2, 14]: −1.45
- Cholesterol-free [2, 15]: 2.442
- Complete [2, 16]: 0.9966

Compound: CCCCCCCC/C=C\CCCCCCCC(=O)O [Oleic acid]
- Cholesterol-free media + simvastatin (0.04 μM) [1, 19]: 0.7267
- Complete Media ([1]; NCI-H292 cells, complete media, cell growth value in FDA drug screen): 0.8301
- Difference [1, 10]: 0.10
- Difference [2, 25]: −0.25
- Cholesterol-free [2, 17]: 1.214
- Complete ([2]; NCI-H292 cells, complete media): 0.9643

Compound: CN1CCC2=C(C1)c1ccccc1Cc1ccccc12 [Setiptiline]
- Cholesterol-free media + simvastatin (0.04 μM) [1, 26]: 1.048
- Complete Media [1, 27]: 0.8546
- Difference [1, 24]: −0.19
- Difference [2, 11]: −0.08
- Cholesterol-free [2, 12]: 1.103
- Complete [2, 13]: 1.024

Compound: CC(C)OC(=O)C(C)(C)Oc1ccc(C(=O)c2ccc(Cl)cc2)cc1 [Fenofibrate]
- Cholesterol-free media + simvastatin (0.04 μM) [1, 26]: 1.641
- Complete Media [1, 27]: 1.401
- Difference [1, 24]: −0.24
- Difference [2, 25]: −0.06
- Cholesterol-free [2, 6]: 0.8551
- Complete [2, 8]: 0.7932

Compound: Nelfinavir (Mesylate)
- Cholesterol-free media + simvastatin (0.04 μM) [1, 22]: 1.565
- Complete Media [1, 23]: 1.199
- Difference [1, 24]: −0.37
- Difference [2, 25]: −0.02
- Cholesterol-free [2, 6]: 1.193
- Complete [2, 8]: 1.169

Compound: CC(=O)OCC(CCn1cnc2cnc(N)nc21)COC(C)=O [Famciclovir]
- Cholesterol-free media + simvastatin (0.04 μM) [1, 22]: 1.597
- Complete Media [1, 23]: 1.161
- Difference [1, 24]: −0.44
- Difference [2, 25]: −0.27
- Cholesterol-free [2, 17]: 1.022
- Complete ([2]; NCI-H292 cells, complete media): 0.7509

Compound: Oc1ccc(C=Cc2cc(O)cc(O)c2)cc1 [Resveratrol]
- Cholesterol-free media + simvastatin (0.04 μM) [1, 9]: 0.7896
- Complete Media [1, 13]: 0.6933
- Difference [1, 24]: −0.10
- Cholesterol-free [2, 6]: 1.037
- Difference [2, 7]: 0.13

Compound: Cc1cccc(C)c1NC(=O)C(C)N (stereo not shown) [Tocainide (hydrochloride)]
- Cholesterol-free media + simvastatin (0.04 μM) [1, 26]: 1.258
- Complete Media [1, 27]: 1.006
- Difference [1, 24]: −0.25
- Cholesterol-free [2, 17]: 1.376
- Complete ([2]; NCI-H292 cells, complete media): 0.9544
- Difference [2, 18]: −0.42
